Consider 42 compounds from patent US11241013B2, “Benzimidazole compounds as agricultural chemicals” (REDAG CROP PROTECTION LTD, priority 2017, dated 2022).

Experiment [1] concerns Pythium ultimum. The experiment is described as follows: Amended agar assay. Format: cell-based. The settings on record: Globisporangium ultimum, amended PDA agar, % reduction in colony growth vs control plate, 18° C. As to the method:
Testing was carried out on potato dextrose agar (PDA) amended with each compound at a test concentration of typically 20 ppm or 2 ppm. Amended agar was poured into three replicate 9 cm petri dishes. Each replicate dish was inoculated in the centre with a 5 mm agar plug taken from the leading edge of a culture aged between 2 and 7 days old; the age of the culture was dependant on the growth rate of the pathogen being tested. The test pathogens were Pythium ultimum and Phytophthora cinnamomi. Plates were incubated at 18° C. and the diameter of each colony measured before growth on the fastest growing plate reached the plate edge. This varied between 2 and 7 days depending on the growth rate of test pathogens. The % reduction in colony growth compared to the control plate was calculated for each pathogen. The results are provided in Table 1, in which D represents no control detected at this concentration; C represents up to 50% control; B from 50 to 99% control; and A represents a control of greater than 99%, i.e. no detectable colony growth.
Alternatively, or in addition, the same assay was conducted at descending test concentrations with 5-fold dilutions typically down to 0.032 ppm though sometimes as low as 0.00026 ppm, and an EC50 (the concentration at which 50% control would be achieved) was determined. The results are provided in Table 1 in which G represents no control detected at 20 ppm, F represents an EC50 of ≥20 ppm and E represents an EC50 of less than 20 ppm.

Experiment [2] relates to Phytophthora cactorum. The experiment is described as follows: 96 well plate test. Type of experiment: cell-based. The settings on record: 96 well plate assay, agar amended to 20, 2, 0.2 and 0.02 ppm, assessed after 2 to 3 days, read-out: EC50 Phytophthora spp. (Phytophthora cactorum). As to the method: Compounds were screened in 96 well plates with 10 compounds per plate. Each compound was screened using agar amended to 20, 2, 0.2 and 0.02 ppm, with proline at 50 and 10 ppm and 0.2% DMSO used as controls. Each test concentration and standard was replicated twice on a plate. Compounds were screened against Phytophthora cactorum. The agar used in the test is a 1% potato dextrose agar. 1000 spores/mL agar were added to the appropriate agar. A ×10 stock solution in 2% DMSO was produced for each dose i.e. 200, 20, 2 and 0.2 ppm, and 10 μl of this added to the appropriate wells on the plate. An equivalent amount of 2% DMSO and proline stock at 500 and 100 ppm were added for the controls. To each well 90 μl of the appropriate agar spore suspension was added to give the required final well concentrations. Plates were incubated at room temperature (18° C.) and assessed after 2 to 3 days. The amount of pathogen growth in each well was compared to the DMSO controls and an EC50 concentration was calculated. The results are provided in Table 1 in which H represents no control detected at 20 ppm, G represents no control detected at 2 ppm (where the highest test concentration in the assay was 2 ppm), F represents an EC50 of ≥20 ppm, E represents an EC50 of less than 20 ppm.

In general, inhibition of growth refers to how much of the control response was suppressed. For orientation: EC50 means the concentration needed to bring the measured effect to its halfway point. As to `Cc1cccnc1COc1nc2ccccc2n1-c1nnnn1C` [Example 3], in experiment [1], the inhibition of growth at 2 ppm lay within 50 to 99% and the inhibition of growth at 20 ppm is over 99%. The EC50 in experiment [2] is at least 20 µg/mL.
For `COc1ccnc(COc2nc3ccccc3n2-c2nnnn2C)c1` [Example 4], in experiment [1], the inhibition of growth at 2 ppm was over 99% and the inhibition of growth at 20 ppm was over 99%. Besides, the half-maximal effective concentration (EC50) in experiment [2] was under 20 µg/mL.
With `Cc1ccc(COc2nc3ccccc3n2-c2nnnn2C)nc1` [Example 6], in experiment [1], the inhibition of growth at 2 ppm is over 99% and the inhibition of growth at 20 ppm is over 99%. The half-maximal effective concentration (EC50) in experiment [2] was at least 20 µg/mL.
`Cn1nnnc1-n1c(OCc2ccncn2)nc2ccccc21` [Example 7] came in with an inhibition of growth at 2 ppm in experiment [1] of over 99%. Also, in experiment [2], the EC50 is under 20 µg/mL.
Turning to `Clc1cncnc1-n1c(OCc2ccccn2)nc2ccccc21` [Example 8], the inhibition of growth at 2 ppm in experiment [1] lay in the range of 50 to 99%. The half-maximal effective concentration (EC50) in experiment [2] is at least 20 µg/mL.
Turning to `COCCCOc1ccnc(COc2nc3ccccc3n2-c2ncncc2Cl)c1C` [Example 10], the inhibition of growth at 2 ppm in experiment [1] was 50 to 99%. In addition, the concentration giving a half-maximal response (EC50) in experiment [2] was at least 20 µg/mL.
`Cc1ccnc(COc2nc3ccccc3n2-c2nnnn2C)c1` [Example 11]: in experiment [1], the inhibition of growth at 2 ppm was over 99% and the inhibition of growth at 20 ppm was over 99%. Besides, the concentration giving a half-maximal response (EC50) in experiment [2] was under 20 µg/mL.
`COc1c(C)cnc(COc2nc3ccccc3n2-c2nnnn2C)c1C` [Example 12]: in experiment [1], the inhibition of growth at 2 ppm was over 99% and the inhibition of growth at 20 ppm is over 99%. Also, the EC50 in experiment [2] was under 20 µg/mL.
In experiment [1], `COc1ccnc(COc2nc3ccccc3n2-c2nnnn2C)c1OC` [Example 13] showed an inhibition of growth at 2 ppm of 50 to 99% and an inhibition of growth at 20 ppm of over 99%. In addition, the 50% effective concentration (EC50) in experiment [2] is under 20 µg/mL.
In experiment [1], `Cc1c(OCC(F)(F)F)ccnc1COc1nc2ccccc2n1-c1nnnn1C` [Example 14] registered an inhibition of growth at 2 ppm of over 99% and an inhibition of growth at 20 ppm of over 99%. The concentration for a half-maximal effect (EC50) in experiment [2] was under 20 µg/mL.
As for `Cn1nnnc1-n1c(OCc2nccs2)nc2ccccc21` [Example 16], in experiment [1], the inhibition of growth at 2 ppm is under 50%. The concentration giving a half-maximal response (EC50) in experiment [2] is at least 20 µg/mL.
In experiment [1], `Cn1nnnc1-n1c(OCc2cccc(Br)n2)nc2ccccc21` [Example 17, 2-((6-bromopyridin-2-yl)methoxy)-1-(1-methyl-1H-tetrazol-5-yl)-1H-benzo[d]imidazole] yielded an inhibition of growth at 2 ppm of under 50%. Besides, the EC50 in experiment [2] was at least 20 µg/mL.
The matching figures for `COc1ccnc(COc2nc3ccccc3n2-c2ncncc2Cl)c1` [Example 22]: 50 to 99% and at least 20 µg/mL.
The matching figures for `Clc1cncnc1-n1c(OCc2nccs2)nc2ccccc21` [Example 23]: 50 to 99% and at least 20 µg/mL.
In turn, `COc1c(C)cnc(COc2nc3ccccc3n2-c2ncncc2Cl)c1C` [Example 24] yielded an inhibition of growth at 2 ppm in experiment [1] of 50 to 99%. Moreover, the EC50 in experiment [2] was under 20 µg/mL.
The matching figures for `Cn1nnnc1-n1c(OCc2ccccn2)nc2c(Cl)cccc21` [Example 30]: over 99% and under 20 µg/mL.
`Cn1nnnc1-n1c(OCc2cccc(NCc3ccccc3)n2)nc2ccccc21` [Example 35, N-Benzyl-6-(((1-(1-methyl-1H-tetrazol-5-yl)-1H-benzo[d]imidazol-2-yl)oxy)methyl)pyridin-2-amine]: the inhibition of growth at 2 ppm in experiment [1] is over 99%. Further, in experiment [2], the concentration giving a half-maximal response (EC50) was under 20 µg/mL.
For `CCNc1cccc(COc2nc3ccccc3n2-c2nnnn2C)n1` [Example 36], in experiment [1], the inhibition of growth at 2 ppm is over 99%. Also, the EC50 in experiment [2] was under 20 µg/mL.
Taken in the same sequence, the figures for `CC(C)CCNc1cccc(COc2nc3ccccc3n2-c2nnnn2C)n1` [Example 37] were over 99% and under 20 µg/mL.
With `Cn1nnnc1-n1c(OCc2cccc(NCCCc3ccccc3)n2)nc2ccccc21` [Example 38], in experiment [1], the inhibition of growth at 2 ppm is over 99%. Moreover, in experiment [2], the concentration giving a half-maximal response (EC50) was under 20 µg/mL.
In experiment [1], `Cn1nnnc1-n1c(OCc2cccc(NCCc3ccccc3)n2)nc2ccccc21` [Example 39] yielded an inhibition of growth at 2 ppm of over 99%. For the same compound, in experiment [2], the EC50 was under 20 µg/mL.
For the compound `Cn1nnnc1-n1c(OCc2cccc(NCc3ccccn3)n2)nc2ccccc21` [Example 40], in experiment [1], the inhibition of growth at 2 ppm is over 99%. In experiment [2], the EC50 is under 20 µg/mL.
As for `CCCNc1cccc(COc2nc3ccccc3n2-c2nnnn2C)n1` [Example 42], the inhibition of growth at 2 ppm in experiment [1] was over 99%. For the same compound, the concentration for a half-maximal effect (EC50) in experiment [2] is under 20 µg/mL.
Taken in the same sequence, the figures for `CCCCNc1cccc(COc2nc3ccccc3n2-c2nnnn2C)n1` [Example 43] were over 99% and under 20 µg/mL.
`Cn1nnnc1-n1c(OCc2cccc(NCc3ccco3)n2)nc2ccccc21` [Example 44]: the inhibition of growth at 2 ppm in experiment [1] was over 99%. For the same compound, in experiment [2], the EC50 was under 20 µg/mL.
`Cn1ccc(CNc2cccc(COc3nc4ccccc4n3-c3nnnn3C)n2)n1` [Example 45] registered an inhibition of growth at 2 ppm in experiment [1] of over 99%. Besides, the EC50 in experiment [2] is under 20 µg/mL.
In the case of `Cn1nnnc1-n1c(OCc2cccc(NCC3CC3)n2)nc2ccccc21` [Example 47], the inhibition of growth at 2 ppm in experiment [1] is over 99%. In addition, the EC50 in experiment [2] was under 20 µg/mL.
Taken in the same sequence, the figures for `CNc1cccc(COc2nc3ccccc3n2-c2nnnn2C)n1` [Example 48, N-Methyl-6-(((1-(1-methyl-1H-tetrazol-5-yl)-1H-benzo[d]imidazol-2-yl)oxy)methyl)pyridin-2-amine] were over 99% and under 20 µg/mL.
Take `CC(C)Nc1cccc(COc2nc3ccccc3n2-c2nnnn2C)n1` [Example 50, N-Isopropyl-6-(((1-(1-methyl-1H-tetrazol-5-yl)-1H-benzo[d]imidazol-2-yl)oxy)methyl)pyridin-2-amine]: the inhibition of growth at 2 ppm in experiment [1] is over 99%. In addition, the EC50 in experiment [2] was under 20 µg/mL.
`CC(C)CCCNc1cccc(COc2nc3ccccc3n2-c2nnnn2C)n1` [Example 51]: in experiment [1], the inhibition of growth at 2 ppm is over 99%. Also, in experiment [2], the half-maximal effective concentration (EC50) is under 20 µg/mL.
For the compound `CSc1ccnc(COc2nc3ccccc3n2-c2nnnn2C)c1` [Example 55], the inhibition of growth at 2 ppm in experiment [1] was over 99%. Moreover, in experiment [2], the EC50 is under 20 µg/mL.
In experiment [1], `COc1ccc(COc2nc3ccccc3n2-c2nnnn2C)nc1` [Example 56] yielded an inhibition of growth at 2 ppm of under 50%. Also, the EC50 in experiment [2] is at least 20 µg/mL.
Taken in the same sequence, the figures for `Cn1nnnc1-n1c(OCc2cccc(N)n2)nc2c(Cl)cccc21` [Example 59] were over 99% and under 20 µg/mL.
In the case of `Cc1c(OC(F)(F)C(F)(F)F)ccnc1COc1nc2c(Cl)cccc2n1-c1nnnn1C` [Example 60], the inhibition of growth at 2 ppm in experiment [1] was over 99%. Besides, the concentration giving a half-maximal response (EC50) in experiment [2] was under 20 µg/mL.
In experiment [1], `COc1ccnc(COc2nc3c(Cl)cccc3n2-c2nnnn2C)c1` [Example 61] had an inhibition of growth at 2 ppm of over 99%. Moreover, the EC50 in experiment [2] is under 20 µg/mL.
Compound `COCCCOc1ccnc(COc2nc3c(Cl)cccc3n2-c2nnnn2C)c1C` [Example 62] came in with an inhibition of growth at 2 ppm in experiment [1] of over 99%. For the same compound, in experiment [2], the half-maximal effective concentration (EC50) is under 20 µg/mL.
Regarding `CC(C)CCCNc1cccc(COc2nc3c(Cl)cccc3n2-c2nnnn2C)n1` [Example 63], the inhibition of growth at 2 ppm in experiment [1] was over 99%. Further, the 50% effective concentration (EC50) in experiment [2] is under 20 µg/mL.
As to `Cn1nnnc1-n1c(OCc2nc3ccccc3n2C)nc2ccccc21` [Example 64], the inhibition of growth at 2 ppm in experiment [1] is over 99%. In experiment [2], the EC50 is under 20 µg/mL.
Taken in the same sequence, the figures for `Cn1nnnc1-n1c(OCc2ccc3ccccc3n2)nc2ccccc21` [Example 65] were 50 to 99% and at least 20 µg/mL.
On to `Cn1nnnc1-n1c(OCc2nc3ccccc3n2C)nc2c(Cl)cccc21` [Example 66], for which the inhibition of growth at 2 ppm in experiment [1] was over 99%. Also, the EC50 in experiment [2] is under 20 µg/mL.
Taken in the same sequence, the figures for `Cn1nnnc1-n1c(OCc2cc([N+](=O)[O-])ccn2)nc2c(Cl)cccc21` [Example 69] were 50 to 99% and at least 20 µg/mL.
Turning to `Cn1nnnc1-n1c(OCc2nc3ccccc3s2)nc2c(Cl)cccc21` [Example 70], the inhibition of growth at 2 ppm in experiment [1] was over 99%. Also, the EC50 in experiment [2] was under 20 µg/mL.
